Measurements from US11691949B2, “Quinoline sulfonamide compounds and their use as antibacterial agents” (OTAGO INNOVATION LIMITED, priority 2017, dated 2023).
Converted amounts (≈) assume the structure as drawn. Counter-ions that a name gives are not always drawn. Like-named read-outs stand apart in the source and are kept apart here.

Experiments:
Format in all cases: cell-based
S. uberis ATCC 19436 = experiment: MIC by broth microdilution, S. uberis; settings: Streptococcus uberis
Summary of the method: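 This broth microdilution assay used S. uberis ATCC 19436 in Todd Hewitt Broth, with zinc sulphate heptahydrate added where required to a final 50 μM. Inhibitor concentration ranges came from two-fold serial dilutions in 96-well flat bottom plates at 200 μl. Approximately 5×10^5 cfu/mL cells were incubated for 24 h at 37° C. and 200 rpm. Wells were then read at OD600 on a Varioskan Flash reader.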

S. aureus ATCC 6538 = experiment: MIC by broth microdilution, S. aureus; settings: Staphylococcus aureus
Summary of the method: (§1)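 Two-fold serial dilutions were tested in broth at ~5×10^5 cfu/mL: S. aureus in TSB or CAMHB, E. coli in LB or CAMHB, with 50 μM zinc sulphate added as required. After 24 h at 37° C, 200 rpm, MIC was the lowest concentration showing no growth by OD600.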

E. coli ATCC 10596 = experiment: MIC by broth microdilution, E. coli; settings: Escherichia coli
Summary of the method: as §1

[1] = ATCC19436, No Zinc, read-out: S. uberis ATCC 19436 MIC
[2] = ATCC19436, Zinc (50 μM), read-out: S. uberis ATCC 19436 MIC
[3] = ATCC6538, No Zinc, read-out: S. aureus ATCC 6538 MIC
[4] = ATCC6538, Zinc (50 μM), read-out: S. aureus ATCC 6538 MIC
[5] = ATCC 10536 / ATCC 10596, No Zinc, read-out: E. coli ATCC 10536 MIC
[6] = ATCC 10536 / ATCC 10596, Zinc (50 μM), read-out: E. coli ATCC 10536 MIC
[7] = ATCC19436, read-out: S. uberis ATCC 19436 MIC, No Zinc
[8] = ATCC19436, read-out: S. uberis ATCC 19436 MIC, Zinc (50 μM)
[9] = ATCC6538, read-out: S. aureus ATCC 6538 MIC, No Zinc
[10] = ATCC6538, read-out: S. aureus ATCC 6538 MIC, Zinc (50 μM)
[11] = ATCC 10536 / ATCC 10596, read-out: E. coli ATCC 10536 MIC, No Zinc
[12] = ATCC 10536 / ATCC 10596, read-out: E. coli ATCC 10536 MIC, Zinc (50 μM)

| Structure (SMILES) | MIC (S. uberis ATCC 19436; [1]) [µg/mL] | MIC (S. uberis ATCC 19436; [2]) [µg/mL] | MIC (S. aureus ATCC 6538; [3]) [µg/mL] | MIC (S. aureus ATCC 6538; [4]) [µg/mL] | MIC (E. coli ATCC 10596; [5]) [µg/mL] | MIC (E. coli ATCC 10596; [6]) [µg/mL] | MIC (S. uberis ATCC 19436; [7]) [µg/mL] | MIC (S. uberis ATCC 19436; [8]) [µg/mL] | MIC (S. aureus ATCC 6538; [9]) [µg/mL] | MIC (S. aureus ATCC 6538; [10]) [µg/mL] | MIC (E. coli ATCC 10596; [11]) [µg/mL] | MIC (E. coli ATCC 10596; [12]) [µg/mL] |
| --- | --- | --- | --- | --- | --- | --- | --- | --- | --- | --- | --- | --- |
| CSc1ccc(S(=O)(=O)Nc2cccc3ccc(CN(C)C)nc23)cc1 [ZDR257, N-(2-((Dimethylamino)methyl)quinolin-8-yl)-4-(methylthio)benzenesulfonamide] | > 256 | 0.0625 (≈ 0.161 µM) | > 256 | > 256 | > 256 | > 256 | – | – | – | – | – | – |
| COc1ccc(S(=O)(=O)Nc2cccc3ccc(CN(C)C)nc23)cn1 [ZDR258, N-(2-((Dimethylamino)methyl)quinolin-8-yl)-6-methoxypyridine-3-sulfonamide] | 256 (≈ 687 µM) | 0.125 (≈ 0.336 µM) | > 256 | > 256 | > 256 | > 256 | – | – | – | – | – | – |
| C=CCS(=O)(=O)Nc1cccc2ccc(CN(C)C)nc12 [ZDR259, N-(2-((Dimethylamino)methyl)quinolin-8-yl)prop-2-ene-1-sulfonamide] | > 256 | 0.25 (≈ 0.819 µM) | > 256 | 256 (≈ 838 µM) | > 256 | > 256 | – | – | – | – | – | – |
| O=C(CNCc1ccc2cccc(NS(=O)(=O)c3ccc(C(F)(F)F)cc3)c2n1)NCCCN1CCCCC1 [ZDR262, N-(3-(Piperidin-1-yl)propyl)-2-(((8-((4-(trifluoromethyl)phenyl)sulfonamido)quinolin-2-yl)methyl)amino)acetamide di-trifluoroacetate] | – | – | – | – | – | – | 8 (≈ 14.2 µM) | 16 (≈ 28.4 µM) | 64 (≈ 114 µM) | 128 (≈ 227 µM) | 32 (≈ 56.8 µM) | 64 (≈ 114 µM) |
| CN(C)Cc1ccc2cccc(NS(=O)(=O)C3CCNCC3)c2n1 [ZDR263, N-(2-((Dimethylamino)methyl)quinolin-8-yl)piperidine-4-sulfonamide di-trifluoroacetate] | – | – | – | – | – | – | > 256 | 256 (≈ 735 µM) | > 256 | > 256 | > 256 | > 256 |
| O=C(CNCc1ccc2cccc(NS(=O)(=O)c3ccc(C(F)(F)F)cc3)c2n1)NC(CO)(CO)CO [ZDR265, N-(1,3-Dihydroxy-2-(hydroxymethyl)propan-2-yl)-2-(((8-((4-(trifluoromethyl)phenyl)sulfonamido)quinolin-2-yl)methyl)amino)acetamide trifluoroacetate] | – | – | – | – | – | – | 128 | 256 | 64 | 64 | 256 | 256 |
| NC(=O)CNCc1ccc2cccc(NS(=O)(=O)c3ccc(C(F)(F)F)cc3)c2n1 [ZDR266, 2-(((8-((4-(Trifluoromethyl)phenyl)sulfonamido)quinolin-2-yl)methyl)amino)acetamide trifluoroacetate] | – | – | – | – | – | – | 16 | 16 | 64 | 32 | 128 | 256 |
| O=C(CNCc1ccc2cccc(NS(=O)(=O)c3ccc(C(F)(F)F)cc3)c2n1)NO [ZDR267, N-hydroxy-2-(((8-((4-(trifluoromethyl)phenyl)sulfonamido)quinolin-2-yl)methyl)amino)acetamide trifluoroacetate] | – | – | – | – | – | – | 256 | 256 | 256 | 128 | > 256 | > 256 |
| CN(C)CCNC(=O)CNCc1ccc2cccc(NS(=O)(=O)c3ccc(C(F)(F)F)cc3)c2n1 [ZDR268, N-(2-(Dimethylamino)ethyl)-2-(((8-((4-(trifluoromethyl)phenyl)sulfonamido)quinolin-2-yl)methyl)amino)acetamide di-trifluoroacetate] | – | – | – | – | – | – | 32 (≈ 62.8 µM) | 16 (≈ 31.4 µM) | 64 (≈ 126 µM) | 128 (≈ 251 µM) | 64 (≈ 126 µM) | 64 (≈ 126 µM) |
| CNC(=O)CNCc1ccc2cccc(NS(=O)(=O)c3ccc(C(F)(F)F)cc3)c2n1 [ZDR270, N-Methyl-2-(((8-((4-(trifluoromethyl)phenyl)sulfonamido)quinolin-2-yl)methyl)amino)acetamide trifluoroacetate] | – | – | – | – | – | – | 16 | 4 | 32 | 32 | 128 | 256 |
| CN(C)Cc1ccc2cccc(NS(=O)(=O)c3ccc(Br)cc3)c2n1 [ZDR305, 4-Bromo-N-(2-((dimethylamino)methyl)quinolin-8-yl)benzenesulfonamide] | > 256 | 0.0625 (≈ 0.149 µM) | 64 (≈ 152 µM) | 128 (≈ 305 µM) | > 256 | > 256 | – | – | – | – | – | – |
| CN(C)Cc1ccc2cccc(NS(=O)(=O)c3ccc(OC(F)F)cc3)c2n1 [ZDR306, 4-(Difluoromethoxy)-N-(2-((dimethylamino)methyl)quinolin-8-yl)benzenesulfonamide] | 128 (≈ 314 µM) | 0.125 (≈ 0.307 µM) | 128 (≈ 314 µM) | 128 (≈ 314 µM) | > 256 | > 256 | – | – | – | – | – | – |
